According to ChEMBL document CHEMBL1201862, “PubChem BioAssay data set” (2004):
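Step 1: Grow cells in 96-well plates. Step 2: Expose to compound for 48 hours at 5 concentrations. Step 3: Interpolate endpoints linearly; if unreached, use highest concentration. The concentration for 50% growth inhibition is given as GI50.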 Activity calls are given as the source filed them. No stated cut-off is given here; in the data, active = GI50 up to about 1.1 µM and inactive = higher.

Experiments:
Test in all cases: growth of human tumour cells (NCI), 48 h
MDA-MB-435 = system: MDA-MB-435
OVCAR-5 = system: OVCAR-5
HOP-62 = system: HOP-62
HCT-116 = system: HCT-116
NCI-H522 = system: NCI-H522
LOX IMVI = system: LOX IMVI
MCF7 = system: MCF7
MDA-MB-231 = system: MDA-MB-231
HCT-15 = system: HCT-15
MOLT-4 = system: MOLT-4
SK-MEL-5 = system: SK-MEL-5
TK-10 = system: TK-10
HCC 2998 = system: HCC 2998
COLO 205 = system: COLO 205
OVCAR-3 = system: OVCAR-3
NCI/ADR-RES = system: NCI/ADR-RES
SF-539 = system: SF-539
A549 = system: A549
Malme-3M = system: Malme-3M
IGROV-1 = system: IGROV-1

Compound | GI50 (MDA-MB-435) | GI50 (OVCAR-5) | GI50 (HOP-62) | GI50 (HCT-116) | GI50 (NCI-H522) | GI50 (LOX IMVI) | GI50 (MCF7) | GI50 (MDA-MB-231) | GI50 (HCT-15) [µM] | GI50 (MOLT-4) | GI50 (SK-MEL-5) | GI50 (TK-10) | GI50 (HCC 2998) | GI50 (COLO 205) | GI50 (OVCAR-3) | GI50 (NCI/ADR-RES) | GI50 (SF-539) | GI50 (A549) | GI50 (Malme-3M) | GI50 (IGROV-1)
Cc1ccc(S(=O)(=O)N2CCSCCSCCSCCSCC2)cc1 | 73.8 µM (inactive) | > 100 µM (inactive) | > 40.6 µM (inactive) | 40 µM (inactive) | 33.6 µM (inactive) | 59.6 µM (inactive) | > 72.9 µM (inactive) | 19.5 µM (inactive) | > 100 | > 82.2 µM (inactive) | 43.1 µM (inactive) | 44.6 µM (inactive) | > 100 µM (inactive) | > 100 µM (inactive) | 35.5 µM (inactive) | 32 µM (inactive) | 26.9 µM (inactive) | 61.1 µM (inactive) | > 72.8 µM (inactive) | 48.4 µM (inactive)
COc1cc2c(c(O)c1OC)C(=O)[C@@H]1CCC(=O)N1C2 | > 100 µM (inactive) | > 100 µM (inactive) | > 100 µM (inactive) | > 100 µM (inactive) | > 100 µM (inactive) | > 100 µM (inactive) | > 100 µM (inactive) | > 100 µM (inactive) | > 100 | > 100 µM (inactive) | > 100 µM (inactive) | > 100 µM (inactive) | > 100 µM (inactive) | > 100 µM (inactive) | > 100 µM (inactive) | > 100 µM (inactive) | > 100 µM (inactive) | > 100 µM (inactive) | > 100 µM (inactive) | > 100 µM (inactive)
O=C(O)[C@@H]1CCS(=O)(=O)N1 | > 100 µM (inactive) | > 100 µM (inactive) | > 100 µM (inactive) | > 100 µM (inactive) | > 100 µM (inactive) | > 100 µM (inactive) | > 100 µM (inactive) | > 100 µM (inactive) | > 100 | > 100 µM (inactive) | > 100 µM (inactive) | > 100 µM (inactive) | > 100 µM (inactive) | > 100 µM (inactive) | > 100 µM (inactive) | > 100 µM (inactive) | > 100 µM (inactive) | > 100 µM (inactive) | > 100 µM (inactive) | > 100 µM (inactive)
COc1ccc(OC)c(C2Cc3cnc4nc(N)nc(N)c4c3C2)c1 (stereo not given) | 26.1 µM (inactive) | 32.9 µM (inactive) | 34.4 µM (inactive) | 19.8 µM (inactive) | 24.1 µM (inactive) | 19.8 µM (inactive) | 29.2 µM (inactive) | 23.7 µM (inactive) | 29.2 | 24.5 µM (inactive) | 29.6 µM (inactive) | 26.2 µM (inactive) | 26.3 µM (inactive) | 19.5 µM (inactive) | 20.5 µM (inactive) | > 100 µM (inactive) | 13.7 µM (inactive) | 41.5 µM (inactive) | 20.8 µM (inactive) | 15.8 µM (inactive)
COC1/C=C/C(C)C(OC)CC(O)/C=C/C(C)C(C(C)C(OC)C(C)CCC(=O)C(C)C(C/C=C/N(C)C=O)OC)OC(=O)/C=C/C=C(\C)CC(OC)CC2=CC(=O)O[C@@H](C(C)C(OC)C1)[C@H]2O (stereo not given in full) | 0.182 µM (active) | 0.177 µM (active) | 0.0537 µM (active) | 0.0188 µM (active) | 0.146 µM (active) | 0.0223 µM (active) | 0.0982 µM (active) | 0.0395 µM (active) | 0.0556 | 0.214 µM (active) | 0.125 µM (active) | 0.29 µM (active) | 0.175 µM (active) | 0.0301 µM (active) | 0.049 µM (active) | 0.195 µM (active) | 0.114 µM (active) | 0.119 µM (active) | 0.069 µM (active) | 0.0708 µM (active)
CCOc1ccccc1/N=N/C1C(=O)N(C(=O)CC(=O)Nc2ccccc2OC)N=C1C (stereo not given) | > 100 µM (inactive) | > 100 µM (inactive) | 18.7 µM (inactive) | 40.9 µM (inactive) | 42.9 µM (inactive) | > 100 µM (inactive) | > 100 µM (inactive) | 30.3 µM (inactive) | 15.7 | > 100 µM (inactive) | > 100 µM (inactive) | > 100 µM (inactive) | > 100 µM (inactive) | > 100 µM (inactive) | > 100 µM (inactive) | 54.7 µM (inactive) | 53.2 µM (inactive) | > 100 µM (inactive) | > 100 µM (inactive) | 50.8 µM (inactive)
COc1ccc2c(c1)[C@@H]1c3cc(OC)c(OC)cc3CCN1CCC2 | > 100 µM (inactive) | > 100 µM (inactive) | > 100 µM (inactive) | 76.2 µM (inactive) | > 100 µM (inactive) | 98.4 µM (inactive) | 83.4 µM (inactive) | > 100 µM (inactive) | 79.4 | 33.3 µM (inactive) | 36.7 µM (inactive) | > 100 µM (inactive) | > 100 µM (inactive) | > 100 µM (inactive) | > 100 µM (inactive) | > 100 µM (inactive) | > 100 µM (inactive) | > 100 µM (inactive) | > 100 µM (inactive) | > 100 µM (inactive)
Cc1nc(Cl)c(CBr)c(Cl)n1 | 1.64 µM (inactive) | 2.05 µM (inactive) | 1.91 µM (inactive) | 0.285 µM (active) | 0.518 µM (active) | 0.585 µM (active) | 0.769 µM (active) | 1.95 µM (inactive) | 1.61 | 0.33 µM (active) | 0.914 µM (active) | 2.08 µM (inactive) | 3.64 µM (inactive) | 1.66 µM (inactive) | 0.596 µM (active) | 2.41 µM (inactive) | 1.97 µM (inactive) | 6.3 µM (inactive) | 0.838 µM (active) | 1.72 µM (inactive)
COCOC1C=CCCCC2=CC(C)=C(CC1)O2 (stereo not given) | > 100 µM (inactive) | > 100 µM (inactive) | > 100 µM (inactive) | > 100 µM (inactive) | > 100 µM (inactive) | > 100 µM (inactive) | > 100 µM (inactive) | > 100 µM (inactive) | > 100 | 42.3 µM (inactive) | > 100 µM (inactive) | > 100 µM (inactive) | > 100 µM (inactive) | > 100 µM (inactive) | 68.4 µM (inactive) | > 100 µM (inactive) | > 100 µM (inactive) | > 100 µM (inactive) | > 100 µM (inactive) | > 100 µM (inactive)
N[C@H](C(=O)O)[C@H]1ON=C(Cl)[C@@H]1O | 3.56 µM (inactive) | 5.6 µM (inactive) | 2.13 µM (inactive) | 2.36 µM (inactive) | 0.942 µM (active) | 8.71 µM (inactive) | 2.6 µM (inactive) | 12.2 µM (inactive) | 1.21 | 1.38 µM (inactive) | 0.929 µM (active) | > 28.5 µM (inactive) | 1.15 µM (inactive) | 0.59 µM (active) | 18.5 µM (inactive) | 6.49 µM (inactive) | 1.28 µM (inactive) | 1.56 µM (inactive) | 24.1 µM (inactive) | 2.84 µM (inactive)
CC1OC(OC2C(O[C@H]3CC[C@@H]4C(=CC[C@@H]5[C@@]4(C)C(=O)C[C@]4(C)[C@@H]([C@H](C)CC[C@@H](O)C(C)(C)O)CC[C@@]54C)C3(C)C)OC(CO)C(O)C2O)C(O)C(O)C1O (stereo not given in full) | > 100 µM (inactive) | > 100 µM (inactive) | > 100 µM (inactive) | > 100 µM (inactive) | > 100 µM (inactive) | > 100 µM (inactive) | > 100 µM (inactive) | > 100 µM (inactive) | > 100 | 37.2 µM (inactive) | > 100 µM (inactive) | > 100 µM (inactive) | > 100 µM (inactive) | > 100 µM (inactive) | > 100 µM (inactive) | > 100 µM (inactive) | > 100 µM (inactive) | > 100 µM (inactive) | > 100 µM (inactive) | 75.5 µM (inactive)
O=C1CC(c2n[nH]c3ccccc23)C(=O)N1c1ccccc1 (stereo not given) | > 100 µM (inactive) | > 100 µM (inactive) | > 100 µM (inactive) | > 100 µM (inactive) | > 100 µM (inactive) | > 100 µM (inactive) | > 100 µM (inactive) | > 100 µM (inactive) | > 100 | > 74 µM (inactive) | > 100 µM (inactive) | > 100 µM (inactive) | > 100 µM (inactive) | > 93.8 µM (inactive) | > 100 µM (inactive) | > 100 µM (inactive) | > 100 µM (inactive) | > 100 µM (inactive) | > 100 µM (inactive) | > 100 µM (inactive)
COc1ccc(CCN2CCN(CCc3ccc(OC)cc3)CC2)cc1 | > 100 µM (inactive) | > 100 µM (inactive) | > 100 µM (inactive) | > 100 µM (inactive) | > 100 µM (inactive) | > 100 µM (inactive) | > 100 µM (inactive) | > 100 µM (inactive) | > 100 | > 100 µM (inactive) | > 100 µM (inactive) | > 100 µM (inactive) | > 100 µM (inactive) | > 100 µM (inactive) | > 100 µM (inactive) | > 100 µM (inactive) | > 100 µM (inactive) | > 100 µM (inactive) | > 100 µM (inactive) | > 100 µM (inactive)
Nc1ccc([As](=O)(O)O)cc1 [ARSANILIC ACID] | > 100 µM (inactive) | > 100 µM (inactive) | > 100 µM (inactive) | > 100 µM (inactive) | > 100 µM (inactive) | > 100 µM (inactive) | > 100 µM (inactive) | > 100 µM (inactive) | > 100 | > 100 µM (inactive) | > 100 µM (inactive) | > 100 µM (inactive) | > 100 µM (inactive) | > 100 µM (inactive) | > 100 µM (inactive) | > 100 µM (inactive) | > 100 µM (inactive) | > 100 µM (inactive) | > 100 µM (inactive) | > 100 µM (inactive)
